From PubChem BioAssay AID266 (DTP/NCI, 2004)
“And” between values parts separate entries of the source, which are not always exact repeats. Identical values can stand only once. Records with an inconclusive call do not appear.

Test system: Nude mice, LX-1 lung xenograft intrarenal, tumor weight T/C
Experiment: NCI In Vivo Anticancer Drug Screen. Data for tumor model Human Lung LX-1 Xenograft (intrarenal inoculation) in NU/NU BALB/C (nude) mice
Settings: endpoint: mean tumor weight change, higher = larger tumour
Procedure: The antitumor activity of compounds was measured in mice bearing transplantable tumors. Survival or tumor size were measured and the results are expressed as the measurement made in the treated group (T) divided by the measurement made in the vehicle treated control group (C). The tumor model used in this assay is Human Lung LX-1 Xenograft (intrarenal inoculation) in NU/NU BALB/C (nude) mice

[1] = dose: 50.0 mg/kg/injection, schedule: Q01DX010 (sc), vehicle: saline with Tween-80
[2] = dose: 100.0 mg/kg/injection, schedule: Q01DX010 (sc), vehicle: saline with Tween-80
[3] = dose: 200.0 mg/kg/injection, schedule: Q01DX010 (sc), vehicle: saline with Tween-80
[4] = dose: 300.0 mg/kg/injection, schedule: Q04DX003 (sc), vehicle: Klucel (hydroxypropylcellulose) (HPC)

## COc1ccc(S(=O)(=O)N/N=C/C(=O)O)cc1
[1]
  T/C: 210 % of control
[2]
  T/C: 119 % of control
[3]
  T/C: 72 % of control

## CC(Oc1ccccc1-c1ccccc1)C(=O)N(C)C (centres undefined)
dose: 600.0 mg/kg/injection, schedule: Q04DX003 (sc), vehicle: saline with Tween-80
  T/C: 100 % of control
dose: 1200.0 mg/kg/injection, schedule: Q04DX003 (sc), vehicle: saline with Tween-80
  T/C: 116 % of control
dose: 2400.0 mg/kg/injection, schedule: Q04DX003 (sc), vehicle: saline with Tween-80
  T/C: 107 % of control

## COc1cc(C[C@H]2c3cc(OC)c(OC)cc3CCN2C)c(Oc2cc3c(cc2OC)-c2c(OC)c(OC)cc4c2[C@H](C3)N(C)CC4)cc1OC
[1]
  T/C: 85 % of control
[2]
  T/C: 107 % of control
[3]
  T/C: 73 % of control
dose: 400.0 mg/kg/injection, schedule: Q01DX010 (sc), vehicle: saline with Tween-80
  T/C: 90 % of control

## Oc1c(Cl)cc(Cl)cc1C=NCCSc1ccc(Cl)cc1
dose: 150.0 mg/kg/injection, schedule: Q04DX003 (ip), vehicle: Klucel (hydroxypropylcellulose) (HPC)
  T/C: 71 % of control
dose: 1200.0 mg/kg/injection, schedule: Q04DX003 (ip), vehicle: Klucel (hydroxypropylcellulose) (HPC)
  T/C: 70 % of control

## CSc1cc(=O)n2c3ccccc3c3ccnc1c32
dose: 80.0 mg/kg/injection, schedule: Q04DX003 (sc), vehicle: saline with Tween-80
  T/C: 56 % of control
dose: 160.0 mg/kg/injection, schedule: Q04DX003 (sc), vehicle: saline with Tween-80
  T/C: 64 % of control
dose: 320.0 mg/kg/injection, schedule: Q04DX003 (sc), vehicle: saline with Tween-80
  T/C: 107 % of control

## CC[C@@]1(O)C(=O)OCc2c1cc1n(c2=O)Cc2cc3ccccc3nc2-1
dose: 5.0 mg/kg/injection, schedule: Q04DX003 (sc), vehicle: saline with Tween-80
  T/C: 15 % of control
dose: 10.0 mg/kg/injection, schedule: Q04DX003 (sc), vehicle: saline with Tween-80
  T/C: 5 % of control and 12 % of control
dose: 20.0 mg/kg/injection, schedule: Q04DX003 (sc), vehicle: saline with Tween-80
  T/C: 3 % of control and 4 % of control

## O=NN(CCCl)C(=O)NC1CCC(=O)NC1=O (centres undefined)
dose: 1.56 mg/kg/injection, schedule: Q01DX010 (sc), vehicle: saline with Tween-80
  T/C: 25 % of control
dose: 3.13 mg/kg/injection, schedule: Q01DX010 (sc), vehicle: saline with Tween-80
  T/C: 12 % of control
dose: 5.2 mg/kg/injection, schedule: Q04DX003 (sc), vehicle: saline with Tween-80
  T/C: 58 % of control
dose: 6.25 mg/kg/injection, schedule: Q01DX010 (sc), vehicle: saline with Tween-80
  T/C: 1 % of control
dose: 10.4 mg/kg/injection, schedule: Q04DX003 (sc), vehicle: saline with Tween-80
  T/C: 3 % of control
dose: 12.5 mg/kg/injection, schedule: Q01DX010 (sc), vehicle: saline with Tween-80
  T/C: -100 % of control
dose: 20.8 mg/kg/injection, schedule: Q04DX003 (sc), vehicle: saline with Tween-80
  T/C: -47 % of control

## COC(=O)c1ccc(N=NN(C)COC(C)=O)cc1
dose: 155.52 mg/kg/injection, schedule: Q04DX003 (ip), vehicle: Klucel (hydroxypropylcellulose) (HPC)
  T/C: 78 % of control
dose: 259.2 mg/kg/injection, schedule: Q04DX003 (ip), vehicle: Klucel (hydroxypropylcellulose) (HPC)
  T/C: 47 % of control
dose: 432.0 mg/kg/injection, schedule: Q04DX003 (ip), vehicle: Klucel (hydroxypropylcellulose) (HPC)
  T/C: 60 % of control
dose: 720.0 mg/kg/injection, schedule: Q04DX003 (ip), vehicle: Klucel (hydroxypropylcellulose) (HPC)
  T/C: 64 % of control

## O=CC(O)C(O)C(O)C(O)CO (centres undefined)
dose: 75.0 mg/kg/injection, schedule: Q04DX003 (ip), vehicle: saline
  T/C: 103 % of control
dose: 150.0 mg/kg/injection, schedule: Q04DX003 (ip), vehicle: saline
  T/C: 101 % of control
dose: 300.0 mg/kg/injection, schedule: Q04DX003 (ip), vehicle: saline
  T/C: 115 % of control
dose: 600.0 mg/kg/injection, schedule: Q04DX003 (ip), vehicle: saline
  T/C: 88 % of control
dose: 1200.0 mg/kg/injection, schedule: Q04DX003 (ip), vehicle: saline
  T/C: 95 % of control

## C/C=C(\C)c1cc(=O)c2c(C)cc3c(c2o1)C(=O)c1c(O)c(C2CC(C)(N(C)C)C(OC(C)=O)C(C)O2)cc(C2CC(N(C)C)C(O)C(C)O2)c1C3=O (centres undefined)
dose: 0.63 mg/kg/injection, schedule: Q04DX003 (sc), vehicle: saline
  T/C: 68 % of control
dose: 1.25 mg/kg/injection, schedule: Q04DX003 (sc), vehicle: saline
  T/C: 48 % of control
dose: 2.5 mg/kg/injection, schedule: Q04DX003 (sc), vehicle: saline
  T/C: 45 % of control
dose: 5.0 mg/kg/injection, schedule: Q04DX003 (sc), vehicle: saline
  T/C: 51 % of control

## Nc1nc(=S)c2ncn(C3CC(O)C(CO)O3)c2[nH]1 (centres undefined)
dose: 50.0 mg/kg/injection, schedule: Q01DX010 (sc), vehicle: Klucel (hydroxypropylcellulose) (HPC)
  T/C: 152 % of control
dose: 100.0 mg/kg/injection, schedule: Q01DX010 (sc), vehicle: Klucel (hydroxypropylcellulose) (HPC)
  T/C: 118 % of control
dose: 200.0 mg/kg/injection, schedule: Q01DX010 (sc), vehicle: Klucel (hydroxypropylcellulose) (HPC)
  T/C: 73 % of control
dose: 400.0 mg/kg/injection, schedule: Q01DX010 (sc), vehicle: Klucel (hydroxypropylcellulose) (HPC)
  T/C: 107 % of control

## C=C(C)C(=O)O[C@H]1CC2=C[C@@H](C[C@@]3(C)O[C@@H]3[C@H]3OC(=O)C(=C)[C@@H]31)OC2=O
dose: 75.0 mg/kg/injection, schedule: Q04DX003 (sc), vehicle: Klucel (hydroxypropylcellulose) (HPC)
  T/C: 64 % of control
dose: 150.0 mg/kg/injection, schedule: Q04DX003 (sc), vehicle: Klucel (hydroxypropylcellulose) (HPC)
  T/C: 91 % of control
[4]
  T/C: 58 % of control

## O=C(O)C1(NO)CCCCC1
dose: 200.0 mg/kg/injection, schedule: Q04DX003 (sc), vehicle: Klucel (hydroxypropylcellulose) (HPC)
  T/C: 81 % of control
dose: 400.0 mg/kg/injection, schedule: Q04DX003 (sc), vehicle: Klucel (hydroxypropylcellulose) (HPC)
  T/C: 85 % of control
dose: 800.0 mg/kg/injection, schedule: Q04DX003 (sc), vehicle: Klucel (hydroxypropylcellulose) (HPC)
  T/C: 81 % of control
dose: 1600.0 mg/kg/injection, schedule: Q04DX003 (sc), vehicle: Klucel (hydroxypropylcellulose) (HPC)
  T/C: 77 % of control

## COC(=O)Nc1cn2cc(C(=O)c3cccs3)ccc2n1
[4]
  T/C: 94 % of control
dose: 600.0 mg/kg/injection, schedule: Q04DX003 (sc), vehicle: Klucel (hydroxypropylcellulose) (HPC)
  T/C: 96 % of control
dose: 1200.0 mg/kg/injection, schedule: Q04DX003 (sc), vehicle: Klucel (hydroxypropylcellulose) (HPC)
  T/C: 54 % of control
dose: 2400.0 mg/kg/injection, schedule: Q04DX003 (sc), vehicle: Klucel (hydroxypropylcellulose) (HPC)
  T/C: 99 % of control

## CC1=CC2c3cccc4[nH]cc(c34)CC2N(C)C1 (centres undefined)
dose: 6.25 mg/kg/injection, schedule: Q04DX003 (ip), vehicle: suspension in saline
  T/C: 93 % of control
dose: 12.5 mg/kg/injection, schedule: Q04DX003 (ip), vehicle: suspension in saline
  T/C: 111 % of control
dose: 25.0 mg/kg/injection, schedule: Q04DX003 (ip), vehicle: suspension in saline
  T/C: 115 % of control
dose: 50.0 mg/kg/injection, schedule: Q04DX003 (ip), vehicle: suspension in saline
  T/C: 115 % of control

## O=S(=O)(CCl)OCCCl
dose: 50.0 mg/kg/injection, schedule: Q04DX003 (sc), vehicle: saline with Tween-80
  T/C: 122 % of control
dose: 100.0 mg/kg/injection, schedule: Q04DX003 (sc), vehicle: saline with Tween-80
  T/C: 101 % of control

## CCC1=C[C@H]2CN(CCc3c([nH]c4ccccc34)[C@@](C(=O)OC)(c3cc4c(cc3OC)N(C)[C@H]3[C@@](O)(C(=O)NC)[C@H](OC(C)=O)[C@]5(CC)C=CCN6CC[C@]43[C@@H]65)C2)C1
dose: 1.0 mg/kg/injection, schedule: Q04DX003 (sc), vehicle: water
  T/C: 30 % of control

## CC[C@](C)(O)C(=O)O[C@H]1C(=O)O[C@@H]2C[C@H]3C(C)=CC(=O)[C@@H](O)[C@]3(C)[C@H]3[C@@]4(O)OC[C@]32[C@@H]1[C@@H](C)[C@H]4O
dose: 0.5 mg/kg/injection, schedule: Q01DX010 (sc), vehicle: Klucel (hydroxypropylcellulose) (HPC)
  T/C: 38 % of control
dose: 1.0 mg/kg/injection, schedule: Q01DX010 (sc), vehicle: Klucel (hydroxypropylcellulose) (HPC)
  T/C: 17 % of control

## COc1ccc(N=N/N=c2\sc3cc(OC)ccc3n2C)cc1
dose: 30.0 mg/kg/injection, schedule: Q04DX003 (ip), vehicle: saline with Tween-80
  T/C: 117 % of control
dose: 60.0 mg/kg/injection, schedule: Q04DX003 (ip), vehicle: saline with Tween-80
  T/C: 94 % of control
dose: 75.0 mg/kg/injection, schedule: Q04DX003 (ip), vehicle: saline with Tween-80
  T/C: 99 % of control
dose: 120.0 mg/kg/injection, schedule: Q04DX003 (ip), vehicle: saline with Tween-80
  T/C: 55 % of control
dose: 150.0 mg/kg/injection, schedule: Q04DX003 (ip), vehicle: saline with Tween-80
  T/C: 80 % of control
dose: 240.0 mg/kg/injection, schedule: Q04DX003 (ip), vehicle: saline with Tween-80
  T/C: 67 % of control
dose: 300.0 mg/kg/injection, schedule: Q04DX003 (ip), vehicle: saline with Tween-80
  T/C: 50 % of control
